Data taken from US20240270821A1, “GIP/GLP1/GCG TRI-RECEPTOR AGONISTS AND USES THEREOF” (priority 2023, published 2024).
Like-named read-outs stand apart in the source and are kept apart here. Starred links: 1 amine or outer side, 2 acyl side, 3 side chain; linkers in the order of their positions; H or OH if unused. Non-standard residues stand in square brackets, D forms with d. Groups on a side chain read outwards from the residue. No end group written: not given here. *: point of attachment. C20 diacid = O=C(O)CCCCCCCCCCCCCCCCCCC(=O)*; C18 diacid = O=C(O)CCCCCCCCCCCCCCCCC(=O)*; γGlu = O=C(O)[C@H](CCC(=O)[*:2])N[*:1]; αMe4Pal = C[C@](N)(Cc1ccncc1)C(=O)O; αMeY = C[C@](N)(Cc1ccc(O)cc1)C(=O)O; αMeF = C[C@](N)(Cc1ccccc1)C(=O)O; 4Pal = N[C@@H](Cc1ccncc1)C(=O)O; αMeL = CC(C)C[C@](C)(N)C(=O)O; αMeS = C[C@](N)(CO)C(=O)O; Orn = NCCC[C@H](N)C(=O)O; Dab = NCC[C@H](N)C(=O)O; AEEA = NCCOCCOCC(=O)O; Aib = CC(C)(N)C(=O)O

Key:
Assay type in all cases: cell-based
human GcgR = human GcgR (Homo sapiens, UniProt P47871); assay: Functional cAMP activity in the presence of 1% HSA
Sequence of human GcgR (P47871 26-477): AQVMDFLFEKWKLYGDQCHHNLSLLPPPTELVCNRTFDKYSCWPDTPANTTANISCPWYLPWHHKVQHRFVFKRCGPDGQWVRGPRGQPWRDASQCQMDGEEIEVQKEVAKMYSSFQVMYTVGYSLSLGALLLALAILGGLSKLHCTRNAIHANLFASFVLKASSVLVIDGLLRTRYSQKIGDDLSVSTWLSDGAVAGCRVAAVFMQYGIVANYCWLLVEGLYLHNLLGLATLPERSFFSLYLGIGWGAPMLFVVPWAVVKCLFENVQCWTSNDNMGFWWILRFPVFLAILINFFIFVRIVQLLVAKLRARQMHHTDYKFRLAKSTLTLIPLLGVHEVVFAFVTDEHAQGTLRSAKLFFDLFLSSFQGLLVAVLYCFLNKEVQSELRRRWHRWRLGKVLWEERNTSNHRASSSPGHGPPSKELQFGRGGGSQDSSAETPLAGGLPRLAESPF

hGLP-1R [1] = target: T1, hGLP-1R (Homo sapiens, UniProt P43220); assay: Functional cAMP activity in the presence of 1% HSA
T1 sequence (P43220 24-463): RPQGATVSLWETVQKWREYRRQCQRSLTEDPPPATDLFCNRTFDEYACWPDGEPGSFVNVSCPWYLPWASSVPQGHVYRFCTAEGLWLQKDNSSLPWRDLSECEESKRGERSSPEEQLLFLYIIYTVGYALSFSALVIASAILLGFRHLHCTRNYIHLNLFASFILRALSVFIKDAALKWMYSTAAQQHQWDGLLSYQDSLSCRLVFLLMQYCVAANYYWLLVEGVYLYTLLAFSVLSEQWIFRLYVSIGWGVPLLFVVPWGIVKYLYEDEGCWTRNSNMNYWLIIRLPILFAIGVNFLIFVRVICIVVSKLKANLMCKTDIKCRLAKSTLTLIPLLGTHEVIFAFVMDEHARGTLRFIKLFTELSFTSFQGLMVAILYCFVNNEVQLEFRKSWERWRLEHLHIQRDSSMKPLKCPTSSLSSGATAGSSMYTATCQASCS

hGcgR = hGcgR (Homo sapiens, UniProt P47871); assay: Functional cAMP activation in the presence of 0.1% casein (no HSA);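 further: intracellular cAMP rise after 30 min at 37 °C, read by HTRF against a cAMP standard curve, scaled from buffer only (0%) to maximal control ligand response (100%)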
Sequence of hGcgR (P47871 26-477): as the sequence (P47871 26-477) above

human GLP1-R = human GLP1-R (Homo sapiens, UniProt P43220); assay: GLP1-R internalization assay in HEK293 cells; conditions: for Internalization % TOP: normalized to maximum concentration of GLP-1 (100%)
Sequence of human GLP1-R (P43220 24-463): as the sequence (P43220 24-463) above

hGIPR [2] = target: T2, hGIPR (Homo sapiens, UniProt P48546); assay: Functional cAMP activity in the presence of 1% HSA
T2 sequence (P48546 22-466): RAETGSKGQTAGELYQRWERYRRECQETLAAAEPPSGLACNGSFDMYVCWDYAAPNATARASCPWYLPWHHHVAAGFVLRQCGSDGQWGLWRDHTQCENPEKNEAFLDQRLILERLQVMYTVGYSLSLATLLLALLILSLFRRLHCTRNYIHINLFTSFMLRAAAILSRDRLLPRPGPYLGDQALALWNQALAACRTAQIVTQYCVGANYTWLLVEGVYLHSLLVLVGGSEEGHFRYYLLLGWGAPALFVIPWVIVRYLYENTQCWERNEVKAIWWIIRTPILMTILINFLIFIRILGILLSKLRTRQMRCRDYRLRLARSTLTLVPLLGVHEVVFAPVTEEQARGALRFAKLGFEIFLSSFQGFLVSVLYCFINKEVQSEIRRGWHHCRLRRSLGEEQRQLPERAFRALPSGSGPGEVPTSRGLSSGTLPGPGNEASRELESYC

hGLP-1R [3] = target: T1, hGLP-1R; assay: Functional cAMP activation in the presence of 0.1% casein (no HSA);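 on Relative cAMP EC50, hGIPR: intracellular cAMP rise after 30 min at 37 °C read by HTRF against a standard curve, scaled between buffer alone (0%) and top control ligand concentration (100%), four-parameter fit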;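 on Relative cAMP EC50, hGLP-1R: intracellular cAMP rise after 30 min at 37 °C read by HTRF, normalized between buffer only (0%) and maximal control ligand (100%), four-parameter variable-slope fit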
hGIPR [4] = target: T2, hGIPR; assay: as above
[5] = read-out: cAMP Rel EC50, hGLP-1R
[6] = in the presence of 0.1% casein (no HSA), geometric mean, read-out: Relative cAMP EC50, hGcgR
[7] = HEK293 cells expressing SNAP-GLP-1R, read-out: GLP1R Internalization EC50
[8] = in the presence of 0.1% casein (no HSA), geometric mean, read-out: Relative cAMP EC50, hGLP-1R
[9] = in the presence of 0.1% casein (no HSA), geometric mean, read-out: Relative cAMP EC50, hGIPR

Row | Molecule | EC50 (human GcgR; read-out: cAMP Rel EC50, hGcgR) [nM] | EC50 (hGLP-1R [1]; [5]) [nM] | EC50 (hGcgR; [6]) [nM] | EC50 (human GLP1-R; [7]) [nM] | Internalization % TOP (human GLP1-R) [%] | EC50 (hGIPR [2]; read-out: cAMP Rel EC50, hGIPR) [nM] | EC50 (hGLP-1R [3]; [8]) [nM] | EC50 (hGIPR [4]; [9]) [nM] | EC50 (human GcgR) [nM] | EC50 (hGLP-1R [1]) [nM] | EC50 (hGcgR) [nM] | EC50 (human GLP1-R) [nM] | EC50 (hGIPR [2]) [nM] | EC50 (hGLP-1R [3]) [nM] | EC50 (hGIPR [4]) [nM]
1 | H-Y[Aib]QGTFTSDFS[Orn][αMeL]LDKK([AEEA-γGlu-C18 diacid])AQ[Aib]AFIEYLLE[Aib]GPSSGAPPPSGS-NH2 [Example 74] | 709 | 627 | 2.53 | 72.7 | 53.3 | 15.9 | 3.32 | 0.0708 |  |  |  |  |  |  | 
2 | Y[Aib]QGTFTSDFS[Dab][αMeL]LDKK([AEEA-γGlu-C18 diacid])AQ[Aib]AFIEYLLEGGPSSGAPPPGGS-NH2 [Example 67] | 781 | 683 | 3.7 | 50.9 | 31.1 | 73.3 | 4.07 | 0.34 |  |  |  |  |  |  | 
3 | H-Y[Aib]QGTFTSDFS[Orn][αMeL]LDKK([AEEA-AEEA-γGlu-C20 diacid])AQ[Aib]AFIEYLLE[Aib]GPSSGEPPPGEG-NH2 [Example 69] | 387 | 279 | 4.75 | 71.9 | 58.2 | 25.6 | 3.25 | 0.136 |  |  |  |  |  |  | 
4 | H-Y[Aib]QGTFTSDFS[Orn][αMeL]LDKK([AEEA-AEEA-γGlu-C18 diacid])AQ[Aib]AFIEYLLEGGPSSGAPPPSGE-NH2 [Example 107] | 1690 | 1110 | 10.8 | 150 | 45.1 | 61.3 | 8.5 | 0.426 |  |  |  |  |  |  | 
5 | H-Y[Aib]QGTFTSDFSR[αMeL]LDKK([AEEA-γGlu-C18 diacid])AQ[Aib]AFIEYLLE[Aib]GPSSGAPPPSGS-NH2 [Example 79] |  |  |  |  | 45.3 |  |  |  | 903 | 437 | 3.08 | 56.6 | 14.3 | 1.8 | 0.0773
6 | H-Y[Aib]QGTFTSDFS[Orn][αMeL]LDKK([γGlu-AEEA-γGlu-C18 diacid])AQ[Aib]AFIEYLLE[Aib]GPSSGAPPPSGT-NH2 [Example 276] | 113 | 103 | 2.82 | 237 | 68.4 | 6.28 | 2.61 | 0.0708 |  |  |  |  |  |  | 
7 | H-Y[Aib]QGTFTSDYSQ[αMeL]LDKK([AEEA-γGlu-C18 diacid])AQ[Aib]AFIEYLLEGGESSGAPPPSGS-NH2 [Example 362] | 1450 | 450 | 6.04 | 22.8 | 77.5 | 38.7 | 1.77 | 0.262 |  |  |  |  |  |  | 
8 | H-Y[Aib]QGTFTSDYS[Orn][αMeL]LDKK([AEEA-γGlu-C18 diacid])AQ[Aib]AFIEYLLEGGESSGAPPPSGS-NH2 [Example 359] | 957 | 826 | 2.1 | 49.6 | 74.4 | 103 | 4.61 | 0.281 |  |  |  |  |  |  | 
9 | H-Y[Aib]QGTFTSDFS[Orn][αMeL]LDKK([AEEA-γGlu-C18 diacid])AQ[Aib]AFIEYLLAGGPSSGAPPPSGSE-NH2 [Example 90] | 990 | 371 | 9.58 | 70.8 | 49.8 | 24.9 | 2.68 | 0.173 |  |  |  |  |  |  | 
10 | H-Y[Aib]QGTFTSDFS[Orn][αMeL]LDKK([AEEA-γGlu-γGlu-C18 diacid])AQ[Aib]AFIEYLLE[Aib]GPSSGAPPPSG[4Pal]-NH2 [Example 279] | 427 | 367 | 5.06 | 115 | 37.5 | 11.6 | 5.77 | 0.105 |  |  |  |  |  |  | 
11 | H-Y[Aib]QGTFTSDFSQ[αMeL]LDKK([AEEA-γGlu-C18 diacid])AQ[αMe4Pal]AFIEYLIE[Aib]GESSGAPPPSGE-NH2 [Example 233] |  |  |  |  | 41.8 |  |  |  | 453 | 223 | 2.25 | 24.8 | 28.1 | 0.874 | 0.0884
12 | H-Y[Aib]QGTFTSDFSK[αMeL]LDKK([AEEA-γGlu-C20 diacid])AQQAFIEYLLA[Aib]GPSSGEPPPSEG-NH2 [Example 19] |  |  |  |  | 72.6 |  |  |  | 1010 | 1310 | 2.35 | 52.4 | 66.2 | 3.96 | 0.228
13 | H-Y[Aib]QGTFTSDFS[Orn][αMeL]LDKK([AEEA-γGlu-C20 diacid])AQ[Aib]AFIEWLLEGGPSSGAPPPSGS-NH2 [Example 78] | 2640 | 560 | 7.06 | 78.2 | 55 | 78.4 | 1.93 | 0.228 |  |  |  |  |  |  | 
14 | H-Y[Aib]QGTFTSD[4Pal]SK[αMeL]LDKK([AEEA-γGlu-C18 diacid])AQ[Aib]AFIEYLIE[Aib]GESSGEPPPSGS-NH2 [Example 282] | 1830 | 217 | 6.98 | 28.7 | 71.9 | 22.1 | 1.09 | 0.163 |  |  |  |  |  |  | 
15 | H-Y[Aib]QGTFTSDFSR[αMeL]LDKK([AEEA-γGlu-C20 diacid])AQ[Aib]AFIEYLLE[Aib]GPSSGAPPPGGS-NH2 [Example 42] |  |  |  |  | 58.3 |  |  |  | 1520 | 700 | 5.83 | 61.4 | 32.3 | 2.17 | 0.115
16 | H-Y[Aib]QGTFTSDFS[Orn][αMeL]LDKK([AEEA-γGlu-C18 diacid])AQ[Aib]AFIEYLLAGGPSSGAPPPEGE-NH2 [Example 99] | 1130 | 588 | 6.09 | 56.9 | 46.1 | 29.5 | 3.54 | 0.174 |  |  |  |  |  |  | 
17 | H-Y[Aib]QGTFTSDFS[Orn][αMeL]LDKK([AEEA-AEEA-γGlu-C18 diacid])AQ[Aib]AFIEYLLE[dA]GPSSGHPPPSGS-NH2 [Example 253] | 963 | 355 | 6.62 | 81.6 | 55.2 | 26.6 | 2.2 | 0.115 |  |  |  |  |  |  | 
18 | H-Y[Aib]QGTFTSDFS[Orn][αMeL]LDKK([AEEA-AEEA-γGlu-C18 diacid])AQ[Aib]AFIEYLLE[dA]GPSSGEPPPSGQ-NH2 [Example 157] | 838 | 496 | 4.16 | 60.3 | 53.3 | 22.2 | 3.04 | 0.183 |  |  |  |  |  |  | 
19 | CC[C@H](C)[C@H](NC(=O)[C@H](Cc1ccccc1)NC(=O)[C@H](C)NC(=O)C(C)(C)NC(=O)[C@H](CCC(N)=O)NC(=O)[C@H](C)NC(=O)[C@H](CCCCNC(=O)COCCOCCNC(=O)CC[C@H](NC(=O)CCCCCCCCCCCCCCCCC(=O)O)C(=O)O)NC(=O)[C@H](CCCCN)NC(=O)[C@H](CC(=O)O)NC(=O)[C@H](CC(C)C)NC(=O)[C@](C)(CC(C)C)NC(=O)[C@H](CCCN)NC(=O)[C@H](CO)NC(=O)[C@H](Cc1ccncc1)NC(=O)[C@H](CC(=O)O)NC(=O)[C@H](CO)NC(=O)[C@@H](NC(=O)[C@H](Cc1ccccc1)NC(=O)[C@@H](NC(=O)CNC(=O)[C@H](CCC(N)=O)NC(=O)C(C)(C)NC(=O)[C@@H](N)Cc1ccc(O)cc1)[C@@H](C)O)[C@@H](C)O)C(=O)N[C@@H](CCC(=O)O)C(=O)N[C@@H](Cc1ccc(O)cc1)C(=O)N[C@@H](CC(C)C)C(=O)N[C@@H](CC(C)C)C(=O)N[C@@H](C)C(=O)NCC(=O)NCC(=O)N1CCC[C@H]1C(=O)N[C@@H](CO)C(=O)N[C@@H](CO)C(=O)NCC(=O)N[C@@H](C)C(=O)N1CCC[C@H]1C(=O)N1CCC[C@H]1C(=O)N1CCC[C@H]1C(=O)N[C@@H](CO)C(=O)NCC(=O)N[C@@H](CCC(=O)O)C(N)=O [Example 112] | 1810 | 892 | 11 | 30.1 | 59.1 |  | 5.77 | 0.233 |  |  |  |  |  |  | 
20 | H-Y[Aib]QGT[αMeF]TSD[4Pal][αMeS]I[αMeL]LD[Orn]K([γGlu-γGlu-C18 diacid])AQ[αMe4Pal]EFI[dE][αMeY]LIEGGPSSGEPPPSGSE-NH2 [Example 1173] | 254 | 59.1 | 2.31 |  |  | 0.764 | 0.604 | 0.00943 |  |  |  |  |  |  | 
